From US20130333715A1, “SHAMPOO COMPOSITIONS AND METHODS OF MAKING SAME” (The Procter & Gamble Company, priority 2012, published 2013)

Experiments:
[1] = Calculated conditional stability constants for chelants with Cu^+2 at specified pH; format: physicochemical
Text: (§1) However, as the pH range of the present compositions are acidic (i.e., less than 7), the log alpha value (αm) is considered to be constant and approximately negligible.

[2] = Calculated conditional stability constants for chelants with Ca^+2 at specified pH; format: physicochemical
Text: as §1
The calculated stability constants for a range of chelants with Fe^+3, Cu^+2, and Ca^+2 are given below in Table 3: […]

[3] = Calculated conditional stability constants for chelants with Fe^+3 at specified pH
Text: The gradual change in ligand species as pH changes can be represented using alpha (α) coefficients, defined as: [formula] […] By combining stability (K) and alpha (α) constants at a given pH, the formula below provides the effective chelating power of a chelant.

[4] = 1:1 complex, fully deprotonated chelant, 25° C., 0.1M ionic strength; cited from earlier work
[5] = 1:1 complex, fully deprotonated chelant, 25° C., 0.1M ionic strength; cited from earlier work; remark: listed apart in the source
[6] = 1:1 complex, fully deprotonated chelant, 25° C., 0.1M ionic strength; cited from earlier work; remark: listed apart in the source

Compound	log Conditional Stability Constant (@ pH) Cu^+2 ([1]; pH 2)	log Conditional Stability Constant (@ pH) Cu^+2 ([1]; pH 3)	log Conditional Stability Constant (@ pH) Cu^+2 ([1]; pH 4)	log Conditional Stability Constant (@ pH) Cu^+2 ([1]; pH 5)	log Conditional Stability Constant (@ pH) Cu^+2 ([1]; pH 6)	log Conditional Stability Constant (@ pH) Cu^+2 ([1]; pH 8)	log Conditional Stability Constant (@ pH) Ca^+2 ([2]; pH 2)	log Conditional Stability Constant (@ pH) Ca^+2 ([2]; pH 3)	log Conditional Stability Constant (@ pH) Ca^+2 ([2]; pH 4)	log Conditional Stability Constant (@ pH) Ca^+2 ([2]; pH 5)	log Conditional Stability Constant (@ pH) Ca^+2 ([2]; pH 6)	log Conditional Stability Constant (@ pH) Ca^+2 ([2]; pH 7)	log Conditional Stability Constant (@ pH) Ca^+2 ([2]; pH 8)	log Conditional Stability Constant (@ pH) Fe^+3 ([3]; pH 2)	log Conditional Stability Constant (@ pH) Fe^+3 ([3]; pH 3)	log Conditional Stability Constant (@ pH) Fe^+3 ([3]; pH 4)	log Conditional Stability Constant (@ pH) Fe^+3 ([3]; pH 6)	log Conditional Stability Constant (@ pH) Fe^+3 ([3]; pH 7)	log Conditional Stability Constant (@ pH) Fe^+3 ([3]; pH 8)	log K Cu [4]	other results
O=P(O)(O)CN(CCN(CP(=O)(O)O)CP(=O)(O)O)CCN(CP(=O)(O)O)CP(=O)(O)O [DTPMP, diethylenetriamine penta(methylene phosphonic acid)]	−9.10	−5.10	−1.10	2.90	6.87	13.85	−21.50	−17.50	−13.50	−9.50	−5.53	−1.72	1.45	−2.10	1.90	5.90	13.87	17.68	20.85	19.5	log Conditional Stability Constant (@ pH) Cu^+2 ([1]; pH 7): 10.68; log Conditional Stability Constant (@ pH) Fe^+3 ([3]; pH 5): 9.90; log K Fe [5]: 26.5; log K Ca [6]: 7.1
O=C(O)CC(NCCNC(CC(=O)O)C(=O)O)C(=O)O (mixture of isomers) [EDDS, ethylene diamine disuccinic acid]	2.59	6.28	9.20	11.41	13.39	16.26	−11.11	−7.42	−4.50	−2.29	−0.13	1.36	2.56	6.29	9.98	12.90	17.09	18.76	19.96	18.35	log K Fe [5]: 22.0; log K Ca [6]: 4.58
